Values quoted from earlier work in patent US20220000750A1, “THE PROCESS FOR THE PREPARATION AND USE OF HAIR TREATMENT COMPOSITIONS CONTAINING ORGANIC C1-C6 ALKOXY SILANES” (Henkel AG & Co. KGaA, priority 2019, published 2022).

Details: 25° C.

| Compound | solubility in water (in words) | solubility in water |
| --- | --- | --- |
| O=C([O-])C1=NN(c2ccc(S(=O)(=O)[O-])cc2)C(=O)C1N=Nc1ccc(S(=O)(=O)[O-])cc1.[Na+].[Na+].[Na+] (centres unmarked) [Acid Yellow 23, trisodium salt of 4,5-dihydro-5-oxo-1-(4-sulfophenyl)-4-((4-sulfophenyl)azo)-1H-pyrazole-3-carboxylic acid] | highly soluble |  |
| O=S(=O)([O-])c1ccc(N=Nc2c(O)ccc3ccccc23)cc1.[Na+] [Acid Orange 7, sodium salt of 4-[(2-hydroxy-1-naphthyl)azo]benzene sulphonate] |  | more than 7 g/L |
| CCN(Cc1cccc(S(=O)(=O)[O-])c1)c1ccc(C(=C2C=CC(=[N+](CC)Cc3cccc(S(=O)(=O)[O-])c3)C=C2)c2ccccc2S(=O)(=O)[O-])cc1.[Na+].[Na+] [Acid Blue 9] |  | more than 20 % by weight |
| Nc1cc(S(=O)(=O)[O-])cc2cc(S(=O)(=O)[O-])c(N=Nc3ccccc3)c(O)c12.[Na+].[Na+] [Acid Red 33, diantrium salt of 5-amino-4-hydroxy-3-(phenylazo)-naphthalene-2,7-disulphonate] |  | 2500 µg/mL |
| O=C([O-])c1c(Cl)c(Cl)c(Cl)c(Cl)c1-c1c2c(Br)cc(=O)c(Br)c-2oc2c(Br)c(O)cc(Br)c12.O=C([O-])c1c(Cl)c(Cl)c(Cl)c(Cl)c1-c1c2c(Br)cc(=O)c(Br)c-2oc2c(Br)c(O)cc(Br)c12.[Na+].[Na+] [Acid Red 92, disodium salt of 3,4,5,6-tetrachloro-2-(1,4,5,8-tetrabromo-6-hydroxy-3-oxoxanthen-9-yl)benzoic acid] |  | greater than 10 g/L |
